Laboratory results reported in ChEMBL document CHEMBL1131555 (Bioorg Med Chem Lett, 1998).

How the values were obtained:
Androgen receptor = target: T1, Androgen receptor (Homo sapiens, UniProt P10275)
T1 sequence (P10275 whole entry): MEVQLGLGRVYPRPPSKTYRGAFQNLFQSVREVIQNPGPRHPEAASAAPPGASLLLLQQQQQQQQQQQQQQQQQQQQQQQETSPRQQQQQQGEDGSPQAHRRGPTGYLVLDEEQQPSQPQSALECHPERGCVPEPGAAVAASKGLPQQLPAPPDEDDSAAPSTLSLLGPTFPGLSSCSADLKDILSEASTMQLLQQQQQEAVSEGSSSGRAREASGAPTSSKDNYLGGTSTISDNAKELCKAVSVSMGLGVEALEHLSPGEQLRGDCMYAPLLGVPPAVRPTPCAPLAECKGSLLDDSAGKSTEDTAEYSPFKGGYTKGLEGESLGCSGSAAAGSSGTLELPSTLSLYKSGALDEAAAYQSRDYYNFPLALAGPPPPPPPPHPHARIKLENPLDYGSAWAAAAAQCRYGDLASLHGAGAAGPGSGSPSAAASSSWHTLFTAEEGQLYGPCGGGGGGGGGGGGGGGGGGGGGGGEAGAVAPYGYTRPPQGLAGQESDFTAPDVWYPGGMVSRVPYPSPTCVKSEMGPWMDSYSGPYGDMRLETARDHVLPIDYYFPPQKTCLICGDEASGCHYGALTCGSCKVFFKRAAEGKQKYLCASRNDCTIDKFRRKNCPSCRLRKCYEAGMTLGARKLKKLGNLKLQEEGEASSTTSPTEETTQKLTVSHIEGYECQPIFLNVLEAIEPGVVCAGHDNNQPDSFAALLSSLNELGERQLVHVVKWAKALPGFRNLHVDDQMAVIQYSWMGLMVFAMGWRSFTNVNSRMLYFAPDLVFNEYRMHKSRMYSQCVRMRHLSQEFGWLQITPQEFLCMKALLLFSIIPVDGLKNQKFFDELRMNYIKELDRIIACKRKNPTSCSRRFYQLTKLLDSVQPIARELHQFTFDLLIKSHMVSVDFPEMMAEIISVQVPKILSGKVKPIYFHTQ
Description: Displacement of DHT from human androgen receptor

Glucocorticoid receptor = target: T2, Glucocorticoid receptor (Homo sapiens, UniProt P04150)
T2 sequence (P04150 whole entry): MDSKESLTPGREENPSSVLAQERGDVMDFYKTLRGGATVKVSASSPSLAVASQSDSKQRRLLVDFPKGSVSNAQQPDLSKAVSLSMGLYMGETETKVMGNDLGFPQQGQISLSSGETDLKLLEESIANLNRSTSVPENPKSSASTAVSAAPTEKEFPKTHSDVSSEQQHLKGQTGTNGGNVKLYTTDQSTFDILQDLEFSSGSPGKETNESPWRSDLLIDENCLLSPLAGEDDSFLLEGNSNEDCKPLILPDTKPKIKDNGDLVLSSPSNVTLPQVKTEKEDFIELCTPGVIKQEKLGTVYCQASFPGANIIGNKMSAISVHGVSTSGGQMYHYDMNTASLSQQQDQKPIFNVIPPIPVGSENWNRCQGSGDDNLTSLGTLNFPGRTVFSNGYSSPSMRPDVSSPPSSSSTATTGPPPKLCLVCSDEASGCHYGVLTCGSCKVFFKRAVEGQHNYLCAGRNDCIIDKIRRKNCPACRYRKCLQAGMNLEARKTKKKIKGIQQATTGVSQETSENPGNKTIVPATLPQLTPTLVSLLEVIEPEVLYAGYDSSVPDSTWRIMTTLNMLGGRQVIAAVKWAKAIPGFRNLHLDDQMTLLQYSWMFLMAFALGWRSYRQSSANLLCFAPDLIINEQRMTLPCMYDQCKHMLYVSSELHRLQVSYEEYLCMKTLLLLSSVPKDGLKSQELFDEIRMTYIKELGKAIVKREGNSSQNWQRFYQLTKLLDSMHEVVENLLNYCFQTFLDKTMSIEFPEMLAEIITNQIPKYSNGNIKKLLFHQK
Description: Displacement of Dexamethasone from human glucocorticoid receptor

Row | Structure (SMILES) | Ki (Androgen receptor) [nM] | Ki (Glucocorticoid receptor) [nM]
1 | CCCCC1Oc2ccc(OC)cc2-c2ccc3c(c21)C(C)=CC(C)(C)N3 (stereo not given) | 785 | 130
2 | C=CCC1Oc2ccccc2-c2ccc3c(c21)C(C)=CC(C)(C)N3 (stereo not given) | > 1000 | 889
3 | CCCCC1Oc2ccc(F)cc2-c2ccc3c(c21)C(C)=CC(C)(C)N3 (stereo not given) | 1330 | 533
4 | CC1=CC(C)(C)Nc2ccc3c(c21)C(C)Oc1ccc(F)cc1-3 (stereo not given) | 456 | 749
5 | CCCCC1Oc2ccccc2-c2ccc3c(c21)C(C)=CC(C)(C)N3 (stereo not given) | 2050 | 813
6 | CC1=CC(C)(C)Nc2ccc3c(c21)C(C)Oc1ccc(Cl)cc1-3 (stereo not given) | 621 | 367
7 | CCCCC1Oc2ccc(Cl)cc2-c2ccc3c(c21)C(C)=CC(C)(C)N3 (stereo not given) | 886 | 394
8 | CCCCC1Oc2ccc(C)cc2-c2ccc3c(c21)C(C)=CC(C)(C)N3 (stereo not given) | 903 | 51
9 | CCCOC1Oc2ccc(Cl)cc2-c2ccc3c(c21)C(C)=CC(C)(C)N3 (stereo not given) | 697 | 260
10 | CC1=CC(C)(C)Nc2ccc3c(c21)C(CCC(C)C)Oc1ccccc1-3 (stereo not given) | 1480 | 158
